Among the data in PubChem BioAssay (NCI) are TGI values, retold here.

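Five compound concentrations were applied to cells in 96-well plates for 48 hours; endpoints were derived by simple linear interpolation of the resulting dose-response curve. TGI: concentration producing complete growth inhibition.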

Some test systems named below: CAKI-1 renal; CCRF-CEM leukemia; EKVX NSCLC; HCT-116 colon; HL-60(TB) leukemia; K-562 leukemia; KM12 colon; M14 melanoma; NCI-H460 lung; SF-295 CNS; SK-MEL-2 melanoma; SK-MEL-5 melanoma; TK-10 renal; U251 CNS; LOX IMVI melanoma; SR leukemia; DU-145 prostate; HCC-2998 colon; MDA-MB-435.
What all share (assay): NCI-60 cell line screen, 48 h

As for `Cc1cc(N(CCC#N)CCC#N)ccc1N=Nc1cccc(Cl)c1`, the TGI with CAKI-1 renal, in the assay with CCRF-CEM leukemia, in the assay with EKVX NSCLC, with HCT-116 colon, in the assay on HL-60(TB) leukemia and in the assay with K-562 leukemia was over 100 µM throughout. The TGI with KM12 colon, in the assay on M14 melanoma, with NCI-H460 lung, in the assay with SF-295 CNS, with SK-MEL-2 melanoma and in the assay with SK-MEL-5 melanoma was over 100 µM throughout. Also, the TGI in the assay with TK-10 renal and with U251 CNS was over 100 µM throughout.
Take `CC(C)(Oc1ccc2c(=O)cc(-c3ccccc3)oc2c1)C(=O)Nc1c(Cl)cccc1Cl`: the TGI in the assay on CAKI-1 renal, in the assay on CCRF-CEM leukemia, in the assay on EKVX NSCLC, in the assay on HCT-116 colon, in the assay on HL-60(TB) leukemia and in the assay on K-562 leukemia was over 100 µM throughout. Further, the TGI with KM12 colon, in the assay with LOX IMVI melanoma, with M14 melanoma, in the assay on NCI-H460 lung, with SF-295 CNS and in the assay on SK-MEL-2 melanoma was over 100 µM throughout. For the same compound, the TGI in the assay with SK-MEL-5 melanoma, with SR leukemia, in the assay on TK-10 renal and in the assay with U251 CNS was over 100 µM in each case.
For `Cc1n[nH]c(=O)n1/N=C/c1ccncc1`, the TGI in the assay with CAKI-1 renal, in the assay with CCRF-CEM leukemia, in the assay on DU-145 prostate, in the assay on EKVX NSCLC, in the assay on HCC-2998 colon and in the assay on HCT-116 colon was over 100 µM in each case. Further, the TGI in the assay with K-562 leukemia, with KM12 colon, in the assay with LOX IMVI melanoma, in the assay with M14 melanoma, with MDA-MB-435 and with NCI-H460 lung was over 100 µM throughout. Moreover, the TGI in the assay on SF-295 CNS, in the assay on SK-MEL-2 melanoma, with SK-MEL-5 melanoma, in the assay on TK-10 renal and with U251 CNS was over 100 µM each time.
With `COc1ccc(N2C(=O)[C@@H]3[C@H](C2=O)c2[nH]c4ccccc4c2C2CCC(C(C)(C)C)C[C@@H]23)cc1` (stereo partly drawn), the TGI in the assay with CAKI-1 renal is over 68.9 µM; in the assay on CCRF-CEM leukemia, 43.7 µM; with EKVX NSCLC it was 81.4 µM; in the assay with HCC-2998 colon, over 100 µM; in the assay with HCT-116 colon it was over 100 µM; in the assay on HL-60(TB) leukemia, over 100 µM. Also, the TGI is over 31.6 µM with K-562 leukemia; over 100 µM with KM12 colon; over 58.6 µM in the assay with LOX IMVI melanoma; over 100 µM in the assay on M14 melanoma; over 100 µM with NCI-H460 lung; 29.4 µM in the assay with SF-295 CNS. The TGI in the assay on SK-MEL-2 melanoma is over 89.9 µM; in the assay on SK-MEL-5 melanoma, over 100 µM; in the assay with TK-10 renal it was 74.6 µM; in the assay on U251 CNS it was 49.1 µM.
For `CC1C=C[C@H](Sc2ccccc2)CC[C@@]1(C)O` (stereo partly drawn), the TGI in the assay with CAKI-1 renal, with CCRF-CEM leukemia, with EKVX NSCLC, in the assay with HCC-2998 colon, with HCT-116 colon and in the assay on HL-60(TB) leukemia was over 100 µM in each case. For the same compound, the TGI with K-562 leukemia, in the assay with LOX IMVI melanoma, with M14 melanoma, in the assay with NCI-H460 lung, in the assay on SK-MEL-2 melanoma and with SK-MEL-5 melanoma was over 100 µM in each case. Also, the TGI in the assay with TK-10 renal and with U251 CNS was over 100 µM throughout.
Take `COC(=O)C1N=CSCC1(C)O` (stereo not drawn): the TGI with CAKI-1 renal, with CCRF-CEM leukemia, in the assay with EKVX NSCLC, in the assay with HCC-2998 colon, in the assay with HCT-116 colon and in the assay on HL-60(TB) leukemia was over 100 µM throughout. For the same compound, the TGI in the assay with K-562 leukemia, in the assay on KM12 colon, in the assay on LOX IMVI melanoma, in the assay on M14 melanoma, with NCI-H460 lung and in the assay with SF-295 CNS was over 100 µM in each case. Besides, the TGI with SK-MEL-2 melanoma, with SK-MEL-5 melanoma and with TK-10 renal was over 100 µM throughout.
`COC(=O)CCc1cccnc1/C=N/O`: the TGI in the assay on CAKI-1 renal, with CCRF-CEM leukemia, in the assay on EKVX NSCLC, in the assay with HCT-116 colon, with HL-60(TB) leukemia and with K-562 leukemia was over 100 µM throughout. Further, the TGI with KM12 colon, in the assay on LOX IMVI melanoma, with M14 melanoma, in the assay with NCI-H460 lung, in the assay with SF-295 CNS and with SK-MEL-2 melanoma was over 100 µM each time. For the same compound, the TGI with SK-MEL-5 melanoma, in the assay on SR leukemia, with TK-10 renal and in the assay with U251 CNS was over 100 µM each time.
Regarding `N#CC(C(=N/NC(N)=S)/C(=N/NC(N)=S)C(C#N)c1ccc(Cl)cc1)c1ccc(Cl)cc1` (stereo not drawn), the TGI in the assay with CCRF-CEM leukemia is 97.9 µM; in the assay with EKVX NSCLC, over 100 µM; with HCC-2998 colon, over 100 µM; in the assay with HCT-116 colon, over 100 µM; in the assay on K-562 leukemia it was over 100 µM; in the assay on KM12 colon, over 100 µM. Further, the TGI in the assay on LOX IMVI melanoma, in the assay on M14 melanoma, in the assay on NCI-H460 lung, in the assay with SF-295 CNS, in the assay with SK-MEL-2 melanoma and with SK-MEL-5 melanoma was over 100 µM throughout. Besides, the TGI with TK-10 renal and in the assay on U251 CNS was over 100 µM each time.
`CC(=O)NC(CCCNC(=O)NCCCl)C(=O)NCc1ccccc1` (stereo not drawn): the TGI with CAKI-1 renal, in the assay on CCRF-CEM leukemia, with EKVX NSCLC, in the assay on HCC-2998 colon, with HCT-116 colon and with HL-60(TB) leukemia was over 100 µM throughout. The TGI in the assay on K-562 leukemia, with KM12 colon, in the assay on M14 melanoma, in the assay with NCI-H460 lung, in the assay on SF-295 CNS and in the assay on SK-MEL-2 melanoma was over 100 µM each time. Also, the TGI with SK-MEL-5 melanoma, with SR leukemia, with TK-10 renal and in the assay on U251 CNS was over 100 µM throughout.
